Values after ≈ are worked out from the molar mass of the structure shown. Like-named read-outs stand apart in the source and are kept apart here.
Experiments:
[1] = Analytical reversed-phase HPLC elution (hydrophobicity); assay type: physicochemical; settings: analytical RP-HPLC, 1 mL/min, UV 220 nm; for HPLC elution: Table S1, SunFire C18, water/ACN + 0.1% TFA, 5 to 100% B linear over 30 min, approximate comparison of hydrophobicity; for HPLC elution (%ACN): Table 1, SunFire C18 […] 250 mm, water/ACN + 0.1% TFA, 5% B 2 min then linear to 100% B over 30 min, used as measure of hydrophobicity
In short: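 Analytical reversed-phase HPLC on a C18 column (4.6 × 250 mm, 5 μm) at 1 mL/min, water/acetonitrile each with 0.1% TFA. Held at 5% B for 2 min, then linear to 100% B over 30 min and held 5 min, with UV detection at 220 nm; retention time (tR) serves as hydrophobicity measure.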

rat erythrocytes = assay: Hemolysis assay; assay type: cell-based; settings: for H max (100 µM): percentage of hemolysis at the highest concentration tested (100 µM), rat erythrocytes
In short: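 Washed Sprague-Dawley rat erythrocytes (10% suspension in PBS pH 7.4) mixed with peptoids (0–100 µM), 60 min at 37 °C; supernatant A540 expressed as % of 1% Triton X-100 lysis. HC10/HC50 are concentrations giving 10%/50% hemolysis; Hmax is hemolysis at 100 µM.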

[2] = remark linked to increased retention time of N4hb peptoids
human cells and animals = settings: cited from earlier work
Experimental: The antimicrobial, hemolytic, and cytotoxic activities of counter-ion-exchanged peptoids were evaluated (Table S3).

E. coli ATCC 25922 [3] = assay type: cell-based; settings: ODT, 30 min treatment; buforin-II 25 µM, melittin 25 µM, 29 4 × MIC
Experimental: Three‐dimensional (3D) optical diffraction tomography (ODT) and fluorescence images of live bacterial cells were obtained using an HT‐2H Mach−Zehnder interferometric microscope, combining both ODT and fluorescence imaging into a single unit (Tomocube, Daejon, South Korea). 3D Fluorescence imaging was carried out, using three light sources (385, 470, and 565 nm) via serial fluorescence image acquisition in multiple planes followed by 3D deconvolution. 3D correlative imaging, using a combination of ODT and fluorescence imaging was performed using commercial software (TomoStudioTM, Tomocube) as described previously^[ [23c] ^] Bacterial cells were grown overnight and diluted (≈10^7 CFU mL^−1) in cation‐adjusted MHB2 media. The cells were loaded onto 50 mm imaging dishes with a #1.5H glass coverslip bottom (TomoDish, Tomocube) that were precoated with 0.01% (w/v) poly‐L‐lysine (Sigma‐Aldrich) in water. After 30 min incubation at room temperature, the coverslips were washed twice with PBS (pH 7.4) to remove unattached cells, and the media was replaced with PBS for the duration of the imaging. To monitor the change in bacterial morphology, bacterial cells were treated with a peptoid (or with control AMPs) in PBS containing FM4‐64 (10 µg mL^−1) or propidium iodide (10 µg mL^−1). To analyze 3D refractive index (RI) tomograms, individual bacteria were captured using ODT equipped with a digital micromirror device (Tomocube). In more detail, the light scattered by the bacterial cells was collected by an objective lens (NA = 1.2, water dipping, UPLSAPO 60XW, Olympus) and recorded by a digital image sensor (CMOS camera, FL3‐U313Y3M‐C, FLIR Systems). Using a field retrieval algorithm, the amplitude and phase images were retrieved from the obtained multiple holograms, and then the 3D RI distribution was determined.
The analysis tool in the TomoStudio software (Tomocube) was used to measure specific values, including the refractive index (RI) and the cell volume of bacteria. These values were determined from RI increments (RII) of 0.190 fL pg^−1, which is known as a representative value and was assumed to be the same for most proteins.^[ [46] ^]

E. coli ATCC 25922 [4] = assay: Thioflavin S fluorescence imaging of intracellular aggregation; assay type: cell-based; settings: 29 and peptoid 1 at 4 × MIC, control peptides 2 × MIC
E. coli ATCC 25922 [5] = assay type: cell-based, Escherichia coli; settings: mean of triplicate
In short: (§1)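 Overnight MHB2 culture at 37 °C, subcultured 3–4 h, diluted to calculated OD 0.001 (≈2–5 × 10^5 CFU mL^−1) in MHB2 + 0.001% AcOH + 0.02% BSA. Six 2-fold peptoid dilutions, max 25 µM, triplicate. Visual turbidity read-out.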

S. aureus ATCC 25923 = assay type: cell-based, Staphylococcus aureus; settings: mean of triplicate
In short: as §1

E. faecalis KCTC 3511 = assay type: cell-based; settings: KCTC 3511
S. typhimurium SL 1344 = assay type: cell-based; settings: SL 1344
P. aeruginosa MDR-198 = assay type: cell-based
E. coli ESBL 63103 = assay type: cell-based
K. pneumonia ESBL 61962 = assay type: cell-based
S. aureus MRSA C623 = assay type: cell-based
E. coli ATCC 25922 [6] = assay: NPN uptake assay (outer membrane); assay type: cell-based; settings: E. coli ATCC 25922, 5 mM HEPES pH 7.2, 10 µM NPN, fluorescence
Experimental: 14. In vitro biological assays […]
The ability of peptoids to increase the permeability of the outer membrane of Gram-negative bacteria was determined by measuring the incorporation of the NPN fluorescent dye into the outer membrane of E. coli ATCC 25922. Bacterial cells were suspended to a final concentration of OD600 = 0.05 in 5 mM HEPES buffer, pH 7.2, containing 5 mM KCN. Then […]
200 μL NPN dye was added to wells of a 96 well plate to produce a final concentration of 10 μM, and the background fluorescence was recorded (λex = 350 nm, λem = 420 nm). Aliquots of peptoids were added to the well, and fluorescence was recorded as a function of time until there was no further increase in fluorescence. Increases of the permeability of the outer membrane after the addition of peptoids was reflected by increased fluorescence values as a result of NPN incorporation into the membrane. […]

E. coli ML-35 cells = assay: ONPG hydrolysis assay (inner membrane); assay type: cell-based; settings: 1.5 mM ONPG, 10 mM sodium phosphate pH 7.4, absorbance 405 nm
Experimental: The permeability of the inner membrane was determined using E. coli ML-35 cells […]
The intact bacterial inner membrane is non-permeable to o-nitrophenyl-β-D-galactopyranoside (OPNG), a chromogenic substrate of the β-galactosidase.
Following damage to the inner membrane, OPNG enters the cells and is metabolized by β-galactosidase creating a chromogenic […]. E. coli cells were washed in 10 mM sodium phosphate (pH 7.4) containing 100 mM NaCl and resuspended in the same buffer at a final concentration of OD600 = 0.5 containing 1.5 mM ONPG. The hydrolysis of ONPG and generation of o-nitrophenol over time were monitored as absorbance change at 405 nm following the addition of peptoids. […]

[7] = Table S2, broth dilution, MHB2, 37 °C 24 h, max 25 µM

Row | Molecule | HPLC elution [1] [% MeCN] | Hmax (100 µM) (rat erythrocytes) [%] | HC10 (rat erythrocytes; pH 7.4) [µM] | HC50 (rat erythrocytes; pH 7.4) [µM] | aqueous solubility [2] | HPLC elution (%ACN) [1] [%ACN] | H max (100 µM) (rat erythrocytes) [%] | other results
1 | C[C@@H](c1ccccc1)N(CC(N)=O)C(=O)CN(CCCCN)C(=O)CN(C(=O)CN(C(=O)CN(CCCCN)C(=O)CN(C(=O)CN(CCCCN)C(=O)CN(CCCCN)C(=O)CN(C(=O)CN(C(=O)CN(CCCCN)C(=O)CN(C(=O)CNCCc1c[nH]c2ccccc12)[C@@H](C)c1ccccc1)[C@@H](C)c1ccccc1)[C@@H](C)c1ccccc1)[C@@H](C)c1ccccc1)[C@@H](C)c1ccccc1)[C@@H](C)c1ccccc1 [peptoid 63] | 49.9 | 12.7±0.9 | 85.0 | > 100 | poor aqueous | – | – | –
2 | C[C@@H](c1ccccc1)N(CC(N)=O)C(=O)CN(CCCCN)C(=O)CN(C(=O)CN(C(=O)CN(CCCCN)C(=O)CN(C(=O)CN(C(=O)CN(CCCCN)C(=O)CN(C(=O)CN(CCCCN)C(=O)CN(CCCCN)C(=O)CN(C(=O)CNCCc1c[nH]c2ccccc12)[C@@H](C)c1ccccc1)[C@@H](C)c1ccccc1)[C@@H](C)c1ccccc1)[C@@H](C)c1ccccc1)[C@@H](C)c1ccccc1)[C@@H](C)c1ccccc1 [peptoid 64] | 50.5 | 18.9±2.9 | 70.7 | > 100 | poor aqueous | – | – | –
3 | KKIRVRLSA [M33-TFA] | – | – | – | – | – | – | – | toxicity of M33-TFA above that of M33-AcOH (human cells and animals): 5-30%
4 | CC[C@H](C)[C@H](NC(=O)CN)C(=O)NCC(=O)N[C@@H](C)C(=O)N[C@H](C(=O)N[C@@H](CC(C)C)C(=O)N[C@@H](CCCCN)C(=O)N[C@H](C(=O)N[C@@H](CC(C)C)C(=O)N[C@H](C(=O)N[C@H](C(=O)NCC(=O)N[C@@H](CC(C)C)C(=O)N1CCC[C@H]1C(=O)N[C@@H](C)C(=O)N[C@@H](CC(C)C)C(=O)N[C@H](C(=O)N[C@@H](CO)C(=O)N[C@@H](Cc1c[nH]c2ccccc12)C(=O)N[C@H](C(=O)N[C@@H](CCCCN)C(=O)N[C@@H](CCCNC(=N)N)C(=O)N[C@@H](CCCCN)C(=O)N[C@@H](CCCNC(=N)N)C(=O)N[C@@H](CCC(N)=O)C(=O)N[C@@H](CCC(N)=O)C(N)=O)[C@@H](C)CC)[C@@H](C)CC)[C@@H](C)O)[C@@H](C)O)C(C)C)C(C)C [Melittin, reference compound] | – | – | – | – | – | 55.4 | 105.7 ± 17.6 | change of cell volume (E. coli ATCC 25922 [3]): notable reduction in cell volume; change of mean RI value versus control cells (E. coli ATCC 25922 [3]): significantly increased mean RI values; Th S fluorescence (intracellular biomass aggregation) (E. coli ATCC 25922 [4]): enhanced Th S fluorescence
5 | C[C@@H](c1ccccc1)N(CC(N)=O)C(=O)CN(CCCCN)C(=O)CN(CCCCN)C(=O)CN(C(=O)CN(C(=O)CN(CCCCN)C(=O)CN(C(=O)CN(C(=O)CN(CCCCN)C(=O)CN(CCc1c[nH]c2ccccc12)C(=O)CN(CCc1c[nH]c2ccccc12)C(=O)CNCCCCN)[C@@H](C)c1ccccc1)[C@@H](C)c1ccccc1)[C@@H](C)c1ccccc1)[C@@H](C)c1ccccc1 [peptoid 32] | – | 4.2±1.0 | 77.7 | > 100 | – | 48.4 | 15.9 ± 1.5 | MIC E. coli ATCC25922 (E. coli ATCC 25922 [5]; [7]): 6.3 µM (≈ 11.7 µg/mL); MIC E. coli ATCC25922 (E. coli ATCC 25922 [5]; Table S3, counter-ion exchange series (TFA, HCl, AcOH salts)): 6.3 µM; MIC S. aureus ATCC25923 (S. aureus ATCC 25923; [7]): 3.1 µM (≈ 5.78 µg/mL); MIC S. aureus ATCC25923 (S. aureus ATCC 25923; Table S3, counter-ion exchange series): 3.1 µM (≈ 5.78 µg/mL); HC10 (rat erythrocytes; red cells of rat): > 100 µM; MIC E. faecalis KCTC 3511 (E. faecalis KCTC 3511): 6.3 µM (≈ 11.7 µg/mL); MIC S. typhimurium SL 1344 (S. typhimurium SL 1344): 6.3 µM (≈ 11.7 µg/mL); MIC P. aeruginosa MDR-198 (P. aeruginosa MDR-198): 6.3 to 12.5 µM; MIC E. coli ESBL 63103 (E. coli ESBL 63103): 12.5 to 25 µM; MIC K. pneumonia ESBL 61962 (K. pneumonia ESBL 61962): 12.5 to 25 µM; MIC S. aureus MRSA C623 (S. aureus MRSA C623): 3.1 to 6.3 µM; outer membrane disruption (NPN uptake) (E. coli ATCC 25922 [6]): somewhat lower; inner membrane disruption (ONPG hydrolysis) (E. coli ML-35 cells): lower than that seen with more hydrophobic peptoids

Reference: paper PMC10460844, “Real‐Time Monitoring of Multitarget Antimicrobial Mechanisms of Peptoids Using Label‐Free Imaging with Optical Diffraction Tomography” (Advanced Science, 2023)
